In the experiment the test system is ATF4 translation. The experiment in a line: ATF4 Nano Luciferase reporter integrated stress response (ISR) assay in H4 ATF4-NLuc cells. In kind it is cell-based, human. As to conditions: Homo sapiens, 0.5 h, H4 ATF4-NLuc (clone 17) cells, compound 30 minutes, then sodium arsenite for 6 additional hours, luminescence readout.

Where two headings read alike, the source gives them in different places.

In the case of `O=C(N[C@@H]1CC[C@@H](c2nnc(C3CC(OC(F)(F)F)C3)o2)OC1)c1ccc2cc(F)c(F)cc2n1` (stereo partly drawn) [Example 75, 6,7-difluoro-N-((3R,6S)-6-(5-(3-cis-(trifluoromethoxy)cyclobutyl)-1,3,4-oxadiazol-2-yl)tetrahydro-2H-pyran-3-yl)quinoline-2-carboxamide], the IC50 (read-out: Activity) was less than 1000 nM and the IC50 (read-out: Biological Example 1 (ATF4 translation, IC50 nM)) turned out to be 8.9 nM.
For the molecule `O=C(N[C@@H]1CC[C@@H](c2nnc(C3CC(OC(F)(F)F)C3)o2)OC1)c1ccc2c(F)c(F)ccc2n1` (stereo partly drawn) [Example 76], where the note is “read-out: Activity”, the IC50 is less than 1000 nM.

The values are drawn from US12139478B2, “Compounds, compositions and methods” (Denali Therapeutics Inc., priority 2017, dated 2024).
